Biological target: T1, human HSL (Homo sapiens, UniProt Q05469)
T1 construct: generate a full length human HSL ORF with a 3′-His6 tag; made in house; host or cells: High 5 insect cells (baculovirus, pFast-BAC)
T1 sequence (Q05469 1-1076): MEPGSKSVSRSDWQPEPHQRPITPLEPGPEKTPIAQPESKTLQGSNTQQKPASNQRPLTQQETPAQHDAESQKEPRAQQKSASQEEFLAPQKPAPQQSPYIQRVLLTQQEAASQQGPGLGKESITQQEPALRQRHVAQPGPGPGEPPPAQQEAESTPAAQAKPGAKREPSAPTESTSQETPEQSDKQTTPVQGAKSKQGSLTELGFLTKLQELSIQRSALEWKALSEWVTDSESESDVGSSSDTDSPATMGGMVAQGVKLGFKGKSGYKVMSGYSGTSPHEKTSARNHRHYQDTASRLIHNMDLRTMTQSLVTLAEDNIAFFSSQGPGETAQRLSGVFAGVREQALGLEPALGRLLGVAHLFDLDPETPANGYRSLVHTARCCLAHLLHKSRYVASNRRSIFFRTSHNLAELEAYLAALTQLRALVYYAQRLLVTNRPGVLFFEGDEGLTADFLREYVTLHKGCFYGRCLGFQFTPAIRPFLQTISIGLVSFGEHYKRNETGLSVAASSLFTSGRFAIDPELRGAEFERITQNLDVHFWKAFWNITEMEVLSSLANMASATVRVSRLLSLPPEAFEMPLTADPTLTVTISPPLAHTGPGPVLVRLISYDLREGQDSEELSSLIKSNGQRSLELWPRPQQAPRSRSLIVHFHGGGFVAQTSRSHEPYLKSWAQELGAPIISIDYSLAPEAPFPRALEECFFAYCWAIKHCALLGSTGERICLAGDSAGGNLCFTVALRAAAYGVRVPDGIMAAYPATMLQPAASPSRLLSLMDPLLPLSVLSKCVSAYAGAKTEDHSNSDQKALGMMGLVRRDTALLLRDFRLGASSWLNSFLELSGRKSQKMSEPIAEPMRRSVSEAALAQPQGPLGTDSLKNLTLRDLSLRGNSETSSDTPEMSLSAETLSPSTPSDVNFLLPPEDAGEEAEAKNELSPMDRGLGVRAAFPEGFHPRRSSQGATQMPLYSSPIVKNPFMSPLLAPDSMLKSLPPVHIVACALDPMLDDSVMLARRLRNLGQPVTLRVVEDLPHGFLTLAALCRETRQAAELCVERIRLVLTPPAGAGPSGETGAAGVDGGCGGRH
Assay: Human Hormone-Sensitive Lipase (HSL) enzyme inhibition assay (colorimetric, DMPT substrate)
Format: biochemical
Details: human full length HSL-His6, 2,3-dimercapto-1-propanol tributyrate substrate, 37° C. 20 minutes, absorbance at 405 nm; read-out: HSL hum IC50
Method in brief: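 Full-length human HSL with C-terminal His6, expressed in baculovirus-infected High 5 cells and Ni-NTA purified, was added (15 ug/ml stock) to 1.5 mM DMPT in 100 mM MOPS pH 7.2, 0.2 mg/ml fatty acid-free BSA containing compound. After 20 min at 37 °C, DTNB with SDS/Triton X-100 was added; A405 read after 15 min at RT.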

| IC50 | SMILES |
| --- | --- |
| 400 nM | CC(C)Oc1ccc(N2CC[C@]3(CC[C@@](O)(c4cnn[nH]4)CC3)C2=O)cc1 [Example 374, (5α,8α)-8-hydroxy-2-(4-isopropoxyphenyl)-8-(1H-1,2,3-triazol-4-yl)-2-azaspiro[4.5]decan-1-one] |
| 14.2 nM | CCc1ccc(CCN2CC[C@]3(CC[C@@](O)(COC(C)C)CC3)C2=O)cc1 [Example 375, (5α,8α)-2-[2-(4-Ethyl-phenyl)-ethyl]-8-hydroxy-8-isopropoxymethyl-2-aza-spiro[4.5]decan-1-one] |
